From patent publication US20050148671A1, “(2S)-amino(phenyl)acetic acid and derivatives as alpha2delta voltage-gated calcium channel ligands” (priority 2004, published 2005)

Tested on: mechanical allodynia in spinal nerve ligated rats
Test: Determination of analgesic effect: mechanical allodynia (von Frey) after L5/L6 spinal nerve ligation
Conditions: oral, in PEG400, 60 minutes before von Frey testing; percentage of maximal protective effect relative to vehicle; male Sprague Dawley rats
Excerpt: Male Sprague Dawley rats (80-100 g) were purchased from Charles River (Portage, Mich.). Prior to surgery, animals were group-housed and maintained in a temperature regulated environment (lights on between 7:00 a.m. and 8:00 p.m.). Following nerve ligation surgery, animals were group housed. Two weeks after surgery, experimentation began. Rats had access to food and water ad libitum.
Briefly, an incision was made on the dorsal portion of the hip and the muscle was blunt dissected to reveal the spinal processes. The L6 transverse process was removed, and the left L5 and L6 spinal nerves were tightly ligated with a 5.0 braided silk suture. The wound was cleaned, the membrane sewn with a 4.0 dissolvable Vicryl suture and the skin closed with wound clips.
For the assessment of neuropathic pain, mechanical allodynia in the affected paw of animals that had undergone spinal nerve ligation was evaluated using von Frey filaments. […] Using the Dixons Up-Down method, a baseline level of allodynia was determined to have a withdrawal threshold of 3 g of pressure.
Rats were placed in groups labeled A-D with six rats per group. Group A was administered 1.0 mL/kg of vehicle (100% PEG400). […] Data are expressed as the percentage of maximal protective effect relative to the control (vehicle treated) animals.

Row | SMILES | EC50 [µmol/kg]
1 | NCC1(CC(=O)O)CCCCC1 [Gabapentin] | 160
2 | N[C@H](C(=O)O)c1ccccc1 [(2S)-amino(phenyl)acetic acid] | 50
